The text below walks through data of publication PMC11395333, “The Bifunctional Dimer Caffeine-Indan Attenuates α-Synuclein Misfolding, Neurodegeneration and Behavioral Deficits after Chronic Stimulation of Adenosine A1 Receptors” (International Journal of Molecular Sciences, 2024).

Each structure is given as a SMILES string. A value given as a limit tells only on which side of the number the result lay.

Data set [1] deals with α-Syn. Also noted: method as in PMID 35139916. As to conditions: co-administration with CPA; cited from earlier work.
Data set [2] in a line: In vivo metabolic stability, radio-HPLC of tissue extracts. The note with it: liver and pancreas extracts, 40 min p.i. Further details: species or system CD-1 mice. The procedure: The liver, pancreas, and brain were collected, washed with saline, placed in water/acetonitrile, and homogenized using the Fisherbrand™ 150 Handheld Homogenizer (Thermo Fisher Scientific, Waltham, MA, USA). The samples were centrifuged at 14,000 relative centrifugal force (rcf) for 5 min (AccuSpin Micro 17, Thermo Fisher Scientific, Waltham, MA, USA). The supernatants were collected and filtered using 0.22 μm organic Millipore-Sigma filters (Oakville, ON, Canada). The clarified filtrate was injected into the HPLC and radioanalytes separated by a reverse phase column (5 μm C18, 9.4 × 250 mm reverse phase column, PN-990967-202, flow rate 5.00 mL/min) using the same gradient elution as described in Table 1. The elution of radioactive metabolites was detected using the radiation detector as described above. […] The radioactivity in each organ/tissue was measured using a calibrated automatic gamma counter (2480 Perkin Elmer, Waltham MA, USA) and the tissue uptake was expressed as a percentage of injected dose (ID) per gram (% ID/g). All radioactivity measurements were corrected for decay. Data are shown as average mean± SEM, calculated using replication for each sample.

Data set [3] in a line: Ex vivo biodistribution in healthy CD-1 mice. The note with it: for Biodistribution, blood / Biodistribution, bone / Biodistribution, brain / Biodistribution, heart / Biodistribution, kidney / Biodistribution, large intestine / Biodistribution, liver / Biodistribution, lung / Biodistribution, small intestine / Biodistribution, spleen: tail vein injection. How it is done: The liver, pancreas, and brain were collected, washed with saline, placed in water/acetonitrile, and homogenized using the Fisherbrand™ 150 Handheld Homogenizer (Thermo Fisher Scientific, Waltham, MA, USA). The samples were centrifuged at 14,000 relative centrifugal force (rcf) for 5 min (AccuSpin Micro 17, Thermo Fisher Scientific, Waltham, MA, USA). The supernatants were collected and filtered using 0.22 μm organic Millipore-Sigma filters (Oakville, ON, Canada). The clarified filtrate was injected into the HPLC and radioanalytes separated by a reverse phase column (5 μm C18, 9.4 × 250 mm reverse phase column, PN-990967-202, flow rate 5.00 mL/min) using the same gradient elution as described in Table 1. The elution of radioactive metabolites was detected using the radiation detector as described above. […] The mice were euthanized (anesthesia followed by cervical dislocation followed by cardiac puncture and blood draw) at 5, 10, 20, 40, and 60 min p.i., and different organs were harvested (blood, liver, small intestine, kidney, spleen, lung, heart, large intestine, bone, and brain), washed and placed in pre-weighed tubes. The radioactivity in each organ/tissue was measured using a calibrated automatic gamma counter (2480 Perkin Elmer, Waltham MA, USA) and the tissue uptake was expressed as a percentage of injected dose (ID) per gram (% ID/g). All radioactivity measurements were corrected for decay. Data are shown as average mean± SEM, calculated using replication for each sample.

Data set [4] is described as follows: Micro-PET/CT dynamic imaging. The format is in vivo, CD-1 mice. How it is done:
The acquisition of dynamic PET data (10 × 10, 8 × 15, 6 × 20, 6 × 30, 4 × 60, 1 × 100, 4 × 100, 6 × 150, 4 × 300) was started immediately after radiotracer injection, followed by a 1 min CT scan. PET/CT images were registered and reconstructed automatically by the GNEXT system. PET images were reconstructed using a 3D-ordered Subset Expectation Maximization algorithm with 24 subsets and 3 iterations. CT images were reconstructed using a Modified Feldkamp algorithm. All data were analyzed using Vivoquant software (IviCRO) (InVicro, Needham, MA, USA). CT images were used to define anatomical regions of interest (ROIs) through PET/CT image co-registration. The quantification of activity concentration in the brain was performed by drawing ROIs and the mean and maximum standard uptake values (SUVs) were determined using the formula: SUV = [(MBq/mL) × (animal wt. (g))/injected dose (MBq)].

Details of data set [5]: method as in PMID 34187286. The note with it: cited from earlier work.
The conditions of data set [6]: extrapolated from unbound CLint in mouse liver microsomes, well-stirred model; cited from earlier work.

As to `NC1CCc2ccccc21` (stereo not drawn) [1-aminoindan], the “CPA-induced α-Syn aggregation and neurodegeneration” value in data set [1] was “prevented the CPA-induced α-Syn aggregation and neurodegeneration”.

With `Cn1c(=O)c2c(nc(CCCCCCNC3CCc4ccccc43)n2CCC[18F])n(C)c1=O` (stereo not drawn) [^18F–C8–6–I], the “Parent compound share of the radioactivity signal” value in data set [2] is recorded as at least 95%. Further, the “Defluorination in vivo (from bone uptake)” value in data set [3] (mouse, in vivo) is “little defluorination occurred in vivo”. Moreover, in data set [3] (ratio of blood radioactivity), the blood5min/blood20min is reported as 1.1 and the blood5min/blood60min was 1.9. Besides, in data set [3] (ratio of brain uptake), the brain5min/brain20min is 1.7 and the brain5min/brain60min turned out to be 3.4. In addition, in data set [3] (5 min p.i.), the “Biodistribution, blood” value is recorded as 0.76 ± 0.040 %ID/g; the “Biodistribution, bone” value is given as 1.00 ± 0.18 %ID/g; the “Biodistribution, brain” value turned out to be 0.17 ± 0.014 %ID/g; the “Biodistribution, heart” value is given as 2.34 ± 0.26 %ID/g. Besides, in data set [3] (5 min p.i.), the “Biodistribution, kidney” value amounted to 16.26 ± 1.82 %ID/g; the “Biodistribution, large intestine” value was found to be 2.98 ± 0.94 %ID/g; the “Biodistribution, liver” value is listed as 5.12 ± 1.65 %ID/g; the “Biodistribution, lung” value was 7.03 ± 1.24 %ID/g. In addition, in data set [3] (5 min p.i.), the “Biodistribution, small intestine” value was 8.56 ± 2.02 %ID/g and the “Biodistribution, spleen” value was 6.54 ± 0.88 %ID/g. Besides, in data set [3] (10 min p.i.), the “Biodistribution, blood” value is 0.78 ± 0.14 %ID/g; the “Biodistribution, bone” value came to 1.24 ± 0.44 %ID/g; the “Biodistribution, brain” value came out at 0.14 ± 0.027 %ID/g; the “Biodistribution, heart” value is recorded as 1.77 ± 0.17 %ID/g. In addition, in data set [3] (10 min p.i.), the “Biodistribution, kidney” value was 11.86 ± 1.74 %ID/g; the “Biodistribution, large intestine” value worked out at 3.06 ± 0.73 %ID/g; the “Biodistribution, liver” value is recorded as 6.91 ± 2.02 %ID/g; the “Biodistribution, lung” value is on record as 5.51 ± 0.44 %ID/g. Also, in data set [3] (10 min p.i.), the “Biodistribution, small intestine” value is on record as 11.18 ± 3.11 %ID/g and the “Biodistribution, spleen” value is 5.49 ± 1.05 %ID/g. Besides, in data set [3] (20 min p.i.), the “Biodistribution, blood” value was 0.67 ± 0.19 %ID/g; the “Biodistribution, bone” value is 1.18 ± 0.005 %ID/g; the “Biodistribution, brain” value stood at 0.10 ± 0.013 %ID/g; the “Biodistribution, heart” value was determined as 1.14 ± 0.040 %ID/g. In addition, in data set [3] (20 min p.i.), the “Biodistribution, kidney” value was 11.02 ± 0.48 %ID/g; the “Biodistribution, large intestine” value was found to be 2.83 ± 0.068 %ID/g; the “Biodistribution, liver” value was 6.64 ± 1.44 %ID/g; the “Biodistribution, lung” value turned out to be 5.52 ± 0.72 %ID/g. In data set [3] (20 min p.i.), the “Biodistribution, small intestine” value worked out at 13.02 ± 1.24 %ID/g and the “Biodistribution, spleen” value was determined as 5.71 ± 0.69 %ID/g. In data set [3] (40 min p.i.), the “Biodistribution, blood” value was 0.48 ± 0.029 %ID/g; the “Biodistribution, bone” value came out at 1.04 ± 0.27 %ID/g; the “Biodistribution, brain” value turned out to be 0.10 ± 0.011 %ID/g; the “Biodistribution, heart” value was 1.01 ± 0.16 %ID/g. Moreover, in data set [3] (40 min p.i.), the “Biodistribution, kidney” value came to 8.65 ± 1.21 %ID/g; the “Biodistribution, large intestine” value was determined as 2.69 ± 0.26 %ID/g; the “Biodistribution, liver” value is 4.76 ± 0.54 %ID/g; the “Biodistribution, lung” value turned out to be 3.00 ± 1.40 %ID/g. In data set [3] (40 min p.i.), the “Biodistribution, small intestine” value is recorded as 9.35 ± 1.82 %ID/g and the “Biodistribution, spleen” value came out at 5.80 ± 0.83 %ID/g. Further, in data set [3] (60 min p.i.), the “Biodistribution, blood” value was 0.39 ± 0.11 %ID/g; the “Biodistribution, bone” value is 1.20 ± 0.34 %ID/g; the “Biodistribution, brain” value is given as 0.05 ± 0.005 %ID/g; the “Biodistribution, heart” value was 0.49 ± 0.018 %ID/g. For the same compound, in data set [3] (60 min p.i.), the “Biodistribution, kidney” value was 4.27 ± 0.37 %ID/g; the “Biodistribution, large intestine” value is reported as 2.50 ± 0.93 %ID/g; the “Biodistribution, liver” value stood at 5.74 ± 1.12 %ID/g; the “Biodistribution, lung” value was determined as 1.42 ± 0.22 %ID/g. For the same compound, in data set [3] (60 min p.i.), the “Biodistribution, small intestine” value is on record as 12.33 ± 0.81 %ID/g and the “Biodistribution, spleen” value turned out to be 3.79 ± 0.33 %ID/g. Moreover, the “Standardized uptake value in the whole brain” value in data set [4] (after 50 min) was found to be 0.21 SUV. For the same compound, the “Maximum standardized uptake value in the whole brain” value in data set [4] (dynamic PET, tail vein injection) amounted to 0.47 SUV.

For `CCCn1c(=O)c2[nH]c(C3CCCC3)nc2n(CCC)c1=O` [DPCPX], the “CPA-induced α-Syn aggregation and neurodegeneration” value in data set [1] is “prevented the CPA-induced α-Syn aggregation and neurodegeneration”.

As to `Cn1c(=O)c2c(nc(CCCCCCNC3CCc4ccccc43)n2CCCF)n(C)c1=O` (stereo not drawn) [^19F–C8–6–I], in data set [5] (1 h incubation, human, mouse and rat liver microsomes), the “Parent remaining in liver microsomes” value is recorded as “significant percentage of the parent ^19F–C8–6–I remained”. Besides, in data set [5] (mouse, rat and human liver microsomes), the “Defluorination in liver microsomes” value is “No defluorination was observed”. For the same compound, in data set [6], the “Predicted in vivo clearance in mouse plasma, CLp” value was 2.16 L/h/kg.
